In one series the test system is Lmna^G609G/G609G mice. Put plainly: In vivo treatment of progeroid Lmna^G609G/G609G mice. Also noted: species or system mouse. As for the experimental part: Weight was monitored during this time and at the end of the period mice were sacrificed and tissue was harvested to determine if PROTAC administration induced a decrease in the levels of progerin in vivo.
UHPLC with an oven temperature of 31.5 °C. The mass spectrometer ion optics were set in the multiple reaction monitoring mode and the transition selected for quantification […]
For in vivo treatment, compound 2 was administrated at a concentration of 25 mg/kg diluted in sterile corn oil (Sigma-Aldrich) intraperitoneally three times per week starting at the age of 6 weeks. The same quantity of corn oil was injected to control […]
LmnaG609G/G609G and Lmna+/+ mice. […]
stress in mice. The weight of each mouse was registered 2 to 3 times per week during the duration of the treatment.
After 7 weeks of treatment, mice were euthanized by CO2 inhalation. Immediately after sacrifice, tissues were harvested, frozen in dry ice, and kept at -80 °C until use. For immunoblot analysis, a portion of the corresponding tissue was homogenized, and the protein concentration was determined. Samples containing equivalent amounts of total protein were then subjected to polyacrylamide gel electrophoresis and analyzed as […]

The test system of series [1] is overall protein abundance. Description: Global proteomic analysis. Format: cell-based. The settings on record: 5 µM compound vs vehicle, three independent samples each. The text has this: (A) Input IP .LM123L T-!=> V,!=>
MW Veh Cpd 2 Cpd 2 Veh !!!!!"#$$#B -45665 T4--8 -4;?,;
Progerin !!!!!E#)*+,- ,V4:-Ise::::: :etpoooomX,?4?V:enst9mmqo,848; !?#$B?CDEFCBG+I-+G.BLG+ […]
!!!!!*+,- 84;66L<-,VI9e::::::esnnsmqmXV4-;VL<-,?:estm9XpoX?4T-?L<-,8 FFFFF0BNNB$ :em9Xn […]
IgG heavy chain Iqep:m:p ne:qmppo:m :esmpqtmpn FFFFFSB#T89:I9em:m […]
50- Iqe9mt:: :eoX9ppnnm :eoqpq9s9p X9YF8=F>.-B2?E+FE??+E?@BBCA
FFFFF0BNNB$ rrrFNBF:eqoqs
Cpd 2 Veh FFFFFSB#T89:rrr […]
Vehicle .LM123L T-!=>(%C" V,!=> […]
50- !!!!!C#' -4TT8VLamin C -4T:T; (%$$-4-:?5T '()*+
!!!!!E#)*+,- ,V4:-β-Actin ,?4?V ,848; D(%
37- !!!!!*+,- 84;66L<-,V V4-;VL<-,? ?4T-?L<-,8 ,-)*+ […]
Abundance Ratio (log2): Ve h / Cpd 2
Supporting Figure S2. Ternary complex formation, progerin engagement and global selectivity of compound 2. (A) Progeroid […]/G609G fibroblasts treated with vehicle (0.1% DMSO) or compound 2 (5 µM) were subjected to immunoprecipitation with an anti-CRBN antibody and then immunoblotted with an anti-progerin antibody. Bar graph represents mean±sem of 2 independent experiments. (B) Representative progerin immunoblotting of the soluble fraction of LmnaG609G/G609G cell homogenates treated with […]
indicated temperature. (C) Thermal denaturation curves of progerin in the presence of vehicle (black) or compound 2 at 10 µM (red, DTm=0.7±0.1 °C) or 25 µM (blue, […]
of compound 2 (IC50=7±1 µM). […]

With `CC1(C)Oc2cc3oc(=O)ccc3cc2C[C@@H]1OC(=O)CCCCCNc1cccc2c1C(=O)N(C1CCC(=O)NC1=O)C2=O` (some centres unmarked) [compound 2], the “apparent damage or stress in mice” value in the series on Lmna^G609G/G609G mice (25 mg/kg i.p. in corn oil three times per week) is “did not produce any apparent damage or stress in mice”. For the same compound, the body weight entry in the series on Lmna^G609G/G609G mice (Lmna^G609G/G609G mice, 25 mg/kg i.p. three times per week, seven weeks) is listed as “trend toward improved body weight”. The “H3K9Me3 levels in vivo” value in the series on Lmna^G609G/G609G mice (liver, Lmna^G609G/G609G mice, 25 mg/kg i.p. three times per week, 7 weeks) is reported as “increased levels of H3K9Me3”. Further, the “progerin levels in vivo” value in the series with Lmna^G609G/G609G mice (lung, Lmna^G609G/G609G mice, 25 mg/kg i.p. three times per week, 7 weeks) is listed as “reduced levels of progerin”. Further, the “alterations in overall protein abundance (global proteomics)” value in series [1] is listed as “did not identify significant alterations in overall protein abundance”.

The record behind these values is publication PMC13252604, “First Generation Proteolysis Targeting Chimeras (PROTACs) for the Treatment of Progeria” (Advanced Science, 2026).
